According to patent publication US11667631B2, “FGFR4 inhibitor, preparation method therefor, and applications thereof” (Jiangsu Hansoh Pharmaceutical Group Co., Ltd., priority 2016, dated 2023):
Like-named read-outs stand apart in the source and are kept apart here.

Experiments:
FGFR1 kinase = FGFR1 kinase (Homo sapiens (Human), UniProt P11362); assay: Enzymologic experiment of FGFR1 (TR-FRET); format: biochemical; details: FGFR1 kinase activity
Procedure: In this experiment, the inhibitory effect of the compounds on FGFR1 kinase activity was tested by a fluorescence resonance energy transfer (TR-FRET) method, and the half maximal inhibitory concentration (IC50) of the compounds on the FGFR1 kinase activity was determined.
1) 1˜5 μL of FGFR1 enzyme solution was added to a 384-well plate, and the final concentration of the enzyme was 0.1˜5 nM.
(§1) 2) 1˜5 μL of diluted solution in gradient of the compound was added.
(§2) 3) 1˜5 μL of a substrate mixture containing substrate polypeptide with a final concentration of 5˜50 nM and ATP with a final concentration of 10˜200 μM was added.
(§3) 4) The mixture was incubated for 0.5˜3 hours at room temperature.
(§4) 5) 10 μL of EDTA and a test solution comprising labeled antibody were added, and the plate was incubated for 1 hour at room temperature.
6) The fluorescence signal values of each plate were determined by a microplate reader at 665 nm.
(§5) 7) The inhibition rates were calculated according to the fluorescence signal values.
8) The IC50 of the compound was obtained by curve fitting according to the inhibition rates at different concentrations, and the enzymatic activity of the specific example compounds is shown in Table 1.

FGFR4 kinase = FGFR4 kinase (Homo sapiens (Human), UniProt P22455); assay: Enzymologic experiment of FGFR4 (TR-FRET); format: biochemical; details: FGFR4 kinase activity
Procedure: In this experiment, the inhibitory effect of the compounds on FGFR4 kinase activity was tested by a fluorescence resonance energy transfer (TR-FRET) method, and the half maximal inhibitory concentration (IC50) of the compounds on the FGFR4 kinase activity was determined.
as §1, §2, §3, §4, §5

SK-HEP-1 cells = assay: Inhibition of SK-HEP-1 cell proliferation (CellTiter-Glo); format: cell-based; details: Homo sapiens, read-out: SK-HEP-1 IC50
Procedure: In this experiment, the inhibitory effect of the compounds on SK-HEP-1 cell proliferation was tested by a CellTiter-Glo method, and the half maximal inhibitory concentration (IC50) of the compounds on the activity of cell proliferation was determined.
1) A 96-well cell culture plate was seeded with 50˜100 μL of SK-HEP-1 cell suspension at a density of 1˜5×10^4 cells/ml. The culture plate was incubated in an incubator for 16˜24 hours (37° C., 5% CO2).
(§6) 2) Different concentrations of the test compound in a gradient dilution were added to the cells in the culture plate. The culture plate was incubated in an incubator for 72 hours (37° C., 5% CO2).
(§7) 3) 50˜100 μL of CellTiter-Glo reagent were added to each well. Then, the culture plate was shaken or left to stand for 5˜30 minutes at room temperature.
(§8) 4) The chemiluminescence signal values of each plate were determined by a microplate reader.
(§9) 5) The inhibition rates were calculated according to the chemiluminescence signal values.
(§10) 6) The IC50 of the compound was obtained by curve fitting according to the inhibition rates at different concentrations, and the cell activity of the specific example compounds is shown in Table 2.

Hep 3B cells = assay: Inhibition of Hep 3B cell proliferation (CellTiter-Glo); format: cell-based; details: Homo sapiens, Hep3B
Procedure: In this experiment, the inhibitory effect of the compounds on Hep 3B cell proliferation was tested by a CellTiter-Glo method, and the half maximal inhibitory concentration (IC50) of the compounds on the activity of cell proliferation was determined.
1) A 96-well cell culture plate was seeded with 50˜100 μL of Hep 3B cell suspension at a density of 1˜5×10^4 cells/ml. The culture plate was incubated in an incubator for 16˜24 hours (37° C., 5% CO2).
as §6, §7, §8, §9

HuH-7 cells = assay: Inhibition of HuH-7 cell proliferation (CellTiter-Glo); format: cell-based; details: Homo sapiens, read-out: HuH-7 IC50
Procedure: In this experiment, the inhibitory effect of the compounds on HuH-7 cell proliferation was tested by a CellTiter-Glo method, and the half maximal inhibitory concentration (IC50) of the compounds on the activity of cell proliferation was determined.
1) A 96-well cell culture plate was seeded with 50˜100 μL of HuH-7 cell suspension at a density of 1˜5×10^4 cells/ml. The culture plate was incubated in an incubator for 16˜24 hours (37° C., 5% CO2).
as §6
3) 50˜100 μL of CellTiter-Glo reagent was added to each well. Then, the culture plate was shaken or left to stand for 5˜30 minutes at room temperature.
as §8, §9, §10

[1] = Pharmacokinetic (PK) analysis in rats; format: in vivo, Sprague Dawley (SD) rats; details: SD rats, single intragastric administration, 5 mg/kg
Procedure: 1) 0.2 ml of intravenous blood was collected and placed in a K2EDTA test tube. The blood was centrifuged at room temperature at the speed of 1000˜3000×g for 5˜20 minutes to isolate the plasma, which was then stored at −80° C.
2) 160 μL of acetonitrile was added to 40 μL of plasma sample for precipitation, and then the mixture was centrifuged at the speed of 500˜2000×g for 5˜20 minutes.
3) 100 μL of treated solution was taken, and the concentration of the test compound was analyzed by LC/MS/MS. The LC/MS/MS analytical instrument was AB Sciex API 4000. • Liquid chromatography analysis: • Condition of Liquid chromatography: Shimadzu LC-20AD pump • Chromatographic column: phenomenex Gemiu 5 um C18 50×4.6 mm • Mobile phase: Solution A is 0.1% formic acid aqueous solution, and Solution B is acetonitrile • Flow rate: 0.8 mL/min • Elution time: 0-3.5 minutes, the eluent was used as follows: […]

[2] = SK-HEP1, SK-HEP-1 cell proliferation, 72 hours, CellTiter-Glo
[3] = Hep 3B cell proliferation, 72 hours, CellTiter-Glo, read-out: Hep 3B IC50
[4] = HuH-7 cell proliferation, 72 hours, CellTiter-Glo

Chain of FGFR4 kinase (P22455 22-802): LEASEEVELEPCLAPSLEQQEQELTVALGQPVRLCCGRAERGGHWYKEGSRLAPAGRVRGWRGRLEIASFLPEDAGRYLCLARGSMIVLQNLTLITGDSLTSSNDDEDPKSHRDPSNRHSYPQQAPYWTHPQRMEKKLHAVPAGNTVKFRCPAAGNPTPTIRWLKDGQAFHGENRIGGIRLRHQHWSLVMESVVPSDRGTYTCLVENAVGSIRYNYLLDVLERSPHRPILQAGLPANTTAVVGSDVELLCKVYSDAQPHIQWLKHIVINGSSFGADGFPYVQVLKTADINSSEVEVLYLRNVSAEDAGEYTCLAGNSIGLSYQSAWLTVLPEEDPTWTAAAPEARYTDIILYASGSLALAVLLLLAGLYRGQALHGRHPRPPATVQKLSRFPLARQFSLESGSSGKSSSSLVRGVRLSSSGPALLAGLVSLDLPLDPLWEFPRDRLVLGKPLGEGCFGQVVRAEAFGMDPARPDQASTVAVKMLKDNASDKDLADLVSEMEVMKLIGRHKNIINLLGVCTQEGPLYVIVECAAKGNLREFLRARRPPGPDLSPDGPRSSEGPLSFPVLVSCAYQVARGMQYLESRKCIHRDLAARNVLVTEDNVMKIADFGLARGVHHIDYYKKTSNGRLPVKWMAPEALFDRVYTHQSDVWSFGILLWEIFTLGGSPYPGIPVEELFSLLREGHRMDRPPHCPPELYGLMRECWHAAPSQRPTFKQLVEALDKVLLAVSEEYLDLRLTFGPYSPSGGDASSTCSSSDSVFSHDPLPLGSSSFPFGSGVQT
Chain of FGFR1 kinase (P11362 22-822): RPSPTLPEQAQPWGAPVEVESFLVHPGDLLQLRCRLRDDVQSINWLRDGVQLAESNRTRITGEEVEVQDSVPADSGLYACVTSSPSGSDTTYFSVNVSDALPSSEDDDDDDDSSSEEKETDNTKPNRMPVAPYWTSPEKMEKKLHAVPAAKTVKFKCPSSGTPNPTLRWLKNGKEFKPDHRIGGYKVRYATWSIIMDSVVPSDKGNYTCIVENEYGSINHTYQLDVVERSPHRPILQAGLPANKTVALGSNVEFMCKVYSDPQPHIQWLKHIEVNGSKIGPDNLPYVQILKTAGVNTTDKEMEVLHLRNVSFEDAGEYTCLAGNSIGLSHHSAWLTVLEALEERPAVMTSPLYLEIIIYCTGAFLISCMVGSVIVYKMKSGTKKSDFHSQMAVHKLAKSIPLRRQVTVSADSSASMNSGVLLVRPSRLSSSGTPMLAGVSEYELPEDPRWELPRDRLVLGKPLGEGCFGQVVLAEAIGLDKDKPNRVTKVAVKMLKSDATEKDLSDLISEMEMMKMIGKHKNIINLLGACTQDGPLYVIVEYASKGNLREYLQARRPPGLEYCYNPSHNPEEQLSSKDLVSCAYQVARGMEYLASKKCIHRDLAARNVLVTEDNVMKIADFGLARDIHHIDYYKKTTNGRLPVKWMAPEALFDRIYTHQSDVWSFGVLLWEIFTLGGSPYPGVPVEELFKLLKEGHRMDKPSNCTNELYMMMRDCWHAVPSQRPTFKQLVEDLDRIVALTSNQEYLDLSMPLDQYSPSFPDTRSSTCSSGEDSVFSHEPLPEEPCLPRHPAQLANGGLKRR

N#Cc1cnc(NC(=O)N2CCCc3cc(CN4CCOCC4=O)c(C=O)nc32)cc1NCCN1CCCC1 [Example 2, N-(5-Cyano-4-((2-(pyrrolidin-1-yl)ethyl)amino)pyridin-2-yl)-7-formyl-6-((3-carbonylmorpholino)methyl)-3,4-dihydro-1,8-naphthyridin-1(2H)-carboxamide]
IC50 (FGFR1 kinase): > 10000 nM | IC50 (FGFR4 kinase): 2.9 nM

CC1OCCC1Sc1cc(NC(=O)N2CCCc3cc(CN4CCOCC4=O)c(C=O)nc32)ncc1C#N (stereo not shown) [Example 3, N-(5-Cyano-4-((2-methyltetrahydrofuran-3-yl)thio)pyridin-2-yl)-7-formyl-6-((3-carbonylmorpholino)methyl)-3,4-dihydro-1,8-naphthyridin-1(2H)-carboxamide]
IC50 (SK-HEP-1 cells; [2]): > 10000 nM | IC50 (FGFR1 kinase): > 10000 nM | IC50 (FGFR4 kinase): 5.4 nM | IC50 (Hep 3B cells; [3]): 13.1 nM | IC50 (HuH-7 cells; [4]): 40.9 nM

COCCNc1cc(NC(=O)N2CCCc3cc(CN4CCCN(C)CC4=O)c(C=O)nc32)ncc1C#N [Example 7, N-(5-Cyano-4-((2-methoxyethyl)amino)pyridin-2-yl)-7-formyl-6-((4-methyl-2-carbonyl-1,4-diazoheptyl-1-yl)methyl)-3,4-dihydro-1,8-naphthyridin-1(2H)-carboxamide]
IC50 (SK-HEP-1 cells; [2]): > 10000 nM | IC50 (FGFR1 kinase): > 10000 nM | IC50 (FGFR4 kinase): 0.6 nM | IC50 (Hep 3B cells; [3]): 1.4 nM | IC50 (HuH-7 cells; [4]): 10.2 nM

COCCNc1cc(NC(=O)N2CCCc3cc(CN4C(=O)COCC45CC5)c(C=O)nc32)ncc1C#N [Example 21, N-(5-Cyano-4-((2-methoxyethyl)amino)pyridin-2-yl)-7-formyl-6-((5-carbonyl-7-oxa-4-azaspiro[2.5]octane-4-yl)methyl)-3,4-dihydro-1,8-naphthyridin-1(2H)-carboxamide]
IC50 (SK-HEP-1 cells; [2]): > 10000 nM | IC50 (FGFR1 kinase): > 10000 nM | IC50 (FGFR4 kinase): 1.71 nM | IC50 (Hep 3B cells; [3]): 8.6 nM | IC50 (HuH-7 cells; [4]): 13.4 nM

COC[C@H](C)Nc1cc(NC(=O)N2CCCc3cc(CN4CCCCOC4=O)c(C=O)nc32)ncc1C#N [Example 30]
IC50 (SK-HEP-1 cells; [2]): > 10000 nM | IC50 (FGFR1 kinase): > 10000 nM | IC50 (FGFR4 kinase): 2.5 nM | IC50 (Hep 3B cells; [3]): 4.6 nM | IC50 (HuH-7 cells; [4]): 13.4 nM

N#Cc1cnc(NC(=O)N2CCCc3cc(CN4CCCCOC4=O)c(C=O)nc32)cc1S[C@H]1CCOC1 [Example 36]
IC50 (SK-HEP-1 cells; [2]): > 10000 nM | IC50 (FGFR1 kinase): > 10000 nM | IC50 (FGFR4 kinase): 4.25 nM | IC50 (Hep 3B cells; [3]): 8 nM | IC50 (HuH-7 cells; [4]): 20.4 nM

CO[C@@H]1COCC1Nc1cc(NC(=O)N2CCCc3cc(CN4CCCCOC4=O)c(C=O)nc32)ncc1C#N (stereo partly drawn) [Example 37, N-(5-Cyano-4-(((trans)-4-methoxytetrahydrofuran-3-yl)amino)pyridin-2-yl)-7-formyl-6-((2-carbonyl-1,3-oxazepin-3-yl)methyl)-3,4-dihydro-1,8-naphthyridin-1(2H) -carboxamide]
IC50 (SK-HEP-1 cells; [2]): > 10000 nM | IC50 (FGFR1 kinase): > 10000 nM | IC50 (FGFR4 kinase): 1.12 nM | IC50 (Hep 3B cells; [3]): 2.8 nM | IC50 (HuH-7 cells; [4]): 4.1 nM

COCCNc1cc(NC(=O)N2CCCc3cc(CN4C(=O)OCC45CC5)c(C=O)nc32)ncc1C#N [Example 43, N-(5-Cyano-4-((2-methoxyethyl)amino)pyridin-2-yl)-7-formyl-6-((5-carbonyl-6-oxa-4-azaspiro[2.4]heptan-4-yl)methyl)-3,4-dihydro-1,8-naphthyridin-1(2H)-carboxamide]
IC50 (SK-HEP-1 cells; [2]): > 10000 nM | IC50 (FGFR1 kinase): > 10000 nM | IC50 (FGFR4 kinase): 4.41 nM | IC50 (Hep 3B cells; [3]): 8.1 nM | IC50 (HuH-7 cells; [4]): 8.1 nM

CC1COC(=O)N1Cc1cc2c(nc1C=O)N(C(=O)Nc1cc(S[C@@H]3CCOC3)c(C#N)cn1)CCC2 (stereo partly drawn) [Example 44, N-(5-Cyano-4-(((R)-tetrahydrofuran-3-yl)thio)pyridin-2-yl)-7-formyl-6-(((S)-4-methyl-2-carbonyloxazolidin-3-yl)methyl)-3,4-dihydro-1,8-naphthyridin-1(2H)-carboxamide]
IC50 (SK-HEP-1 cells; [2]): > 10000 nM | IC50 (FGFR1 kinase): > 10000 nM | IC50 (FGFR4 kinase): 6.5 nM | IC50 (Hep 3B cells; [3]): 11.5 nM | IC50 (HuH-7 cells; [4]): 35.4 nM

C[C@H]1COC(=O)N1Cc1cc2c(nc1C=O)N(C(=O)Nc1cc(S[C@H]3CCOC3)c(C#N)cn1)CCC2 [Example 45, N-(5-Cyano-4-(((S)-tetrahydrofuran-3-yl)thio)pyridin-2-yl)-7-formyl-6-(((S)-4-methyl-2-carbonyloxazolidin-3-yl)methyl)-3,4-dihydro-1,8-naphthyridin-1(2H)-carboxamide]
IC50 (SK-HEP-1 cells; [2]): > 10000 nM | IC50 (FGFR1 kinase): > 10000 nM | IC50 (FGFR4 kinase): 4.66 nM | IC50 (Hep 3B cells; [3]): 14.2 nM | IC50 (HuH-7 cells; [4]): 32.2 nM

CO[C@H]1COCC1Oc1cc(NC(=O)N2CCCc3cc(CN4C(=O)OC[C@@H]4C)c(C=O)nc32)ncc1C#N (stereo partly drawn) [Example 47, N-(5-Cyano-4-(((3,4)-trans-4-methoxytetrahydrofuran-3-yl)oxy)pyridin-2-yl)-7-formyl-6-(((S)-4-methyl-2-carbonyloxazolidin-3-yl)methyl)-3,4-dihydro-1,8-naphthyridin-1(2H)-carboxamide]
IC50 (SK-HEP-1 cells; [2]): > 10000 nM | IC50 (FGFR1 kinase): > 10000 nM | IC50 (FGFR4 kinase): 4.95 nM | IC50 (Hep 3B cells; [3]): 9.9 nM | IC50 (HuH-7 cells; [4]): 24.4 nM

COC[C@@H](C)Oc1cc(NC(=O)N2CCCc3cc(CN4CCOC4=S)c(C=O)nc32)ncc1C#N [Example 48, (R)-N-(5-Cyano-4-((1-methoxypropan-2-yl)oxy)pyridin-2-yl)-7-formyl-6-((2-thiooxazolidin-3-yl)methyl)-3,4-dihydro-1,8-naphthyridin-1(2H)-carboxamide]
IC50 (SK-HEP-1 cells; [2]): > 10000 nM | IC50 (FGFR1 kinase): > 10000 nM | IC50 (FGFR4 kinase): 8.48 nM | IC50 (Hep 3B cells; [3]): 13.1 nM | IC50 (HuH-7 cells; [4]): 15.6 nM

CO[C@H]1CCC1Oc1cc(NC(=O)N2CCCc3cc(CN4CCOCC4=O)c(C=O)nc32)ncc1C#N (stereo partly drawn) [Example 62, N-(5-Cyano-4-cis-((1,2)-2-methoxycyclobutoxy)pyridin-2-yl)-7-formyl-6-((3-carbonylmorpholino)methyl)-3,4-dihydro-1,8-naphthyridin-1(2H)-carboxamide]
IC50 (SK-HEP-1 cells; SK-HEP1, 72 h): > 10000 nM | Peak Time tmax ([1]; (sampling in hours)): 2 h | AUC(0-t) ([1]; Sprague-Dawley, rat, plasma, po, read-out: Area Under Curve AUC0-t): 4020 ng·h/mL | AUC(0-inf) ([1]; Sprague-Dawley, rat, plasma, po, read-out: Area Under Curve AUC0-∞): 4060 ng·h/mL | half-life ([1]; Sprague-Dawley, rat, plasma, po, read-out: Half-Time t1/2 (converted)): 0.85 h | MRT ([1]; Sprague-Dawley, rat, plasma, po, read-out: Mean Residence Time MRT): 2.98 h | Cmax ([1]; Sprague-Dawley, rat, plasma, po, read-out: Plasma Concentration Cmax): 2810 ng/mL | IC50 (FGFR1 kinase): > 10000 nM | IC50 (Hep 3B cells; 72 h, read-out: Hep 3B IC50, Hep 3B cell proliferation, 72 hours, CellTiter-Glo): 3.4 nM | IC50 (HuH-7 cells; Huh-7, 72 h): 4.2 nM
